The test system of one assay is S. aureus (ATCC 29213). As to the kind of experiment: Bacterial assay: MIC against S. aureus. Format: cell-based, Staphylococcus aureus. The settings on record: Staphylococcus aureus, ATCC29213, read-out: minimal inhibitory concentration (MIC).
In another assay the test system is S. pyogenes (ATCC 51339). The assay can be described thus: Bacterial assay: MIC against S. pyogenes. The format is cell-based, Streptococcus pyogenes. The conditions noted are these: Streptococcus pyogenes, ATCC51339, read-out: minimal inhibitory concentration (MIC).

Values after ≈ are worked out from the molar mass of the structure shown.

As to `CCNC(=O)Nc1nc2cc(-c3cnc(C4(O)CN(C(=O)OC(C)(C)C)C4)nc3)cc(-c3ccccn3)c2s1` [Compound 162, tert-butyl 3-[5-[2-(ethylcarbamoylamino)-7-(2-pyridyl)-1,3-benzothiazol-5-yl]pyrimidin-2-yl]-3-hydroxy-azetidine-1-carboxylate], the MIC in the assay with S. aureus (ATCC 29213) and in the assay with S. pyogenes (ATCC 51339) was not above 1 µg/mL in each case.

As for `CCNC(=O)Nc1nc2cc(-c3cnc(C(C)(C)O)nc3)cc(-c3ncc(CN4CCOCC4)cn3)c2s1` [Compound 120, 1-ethyl-3-[5-[2-(1-hydroxy-1-methyl-ethyl)pyrimidin-5-yl]-7-[5-(morpholinomethyl)pyrimidin-2-yl]-1,3-benzothiazol-2-yl]urea], the MIC in the assay on S. aureus (ATCC 29213) and with S. pyogenes (ATCC 51339) was not above 1 µg/mL throughout.

`CCNC(=O)Nc1nc2cc(-c3cnc(C(C)(C)O)nc3)cc(-c3nccc(NCCN4CCOCC4)n3)c2s1` [Compound 91, 1-ethyl-3-[5-[2-(1-hydroxy-1-methyl-ethyl)pyrimidin-5-yl]-7-[4-(2-morpholinoethylamino)pyrimidin-2-yl]-1,3-benzothiazol-2-yl]urea]: the MIC with S. aureus (ATCC 29213) was 2 µg/mL (≈ 3.55 µM); with S. pyogenes (ATCC 51339), not above 1 µg/mL.

For `CCNC(=O)Nc1nc2cc(-c3cnc(C(C)O)nc3)cc(-c3nccc(N4CC(O)C4)n3)c2s1` (stereo not drawn) [Compound 105, 1-ethyl-3-[7-[4-(3-hydroxyazetidin-1-yl)pyrimidin-2-yl]-5-[2-(1-hydroxyethyl)pyrimidin-5-yl]-1,3-benzothiazol-2-yl]urea], the MIC in the assay on S. aureus (ATCC 29213) is 16 µg/mL (≈ 32.5 µM); in the assay with S. pyogenes (ATCC 51339), not above 1 µg/mL.

Turning to `CCNC(=O)Nc1nc2cc(-c3cnc(C(C)(C)O)nc3)cc(-c3cc(CN4CCS(=O)(=O)CC4)ccn3)c2s1` [Compound 191, 1-[7-[4-[(1,1-dioxo-1,4-thiazinan-4-yl)methyl]-2-pyridyl]-5-[2-(1-hydroxy-1-methyl-ethyl)pyrimidin-5-yl]-1,3-benzothiazol-2-yl]-3-ethyl-urea], the MIC in the assay on S. aureus (ATCC 29213) and in the assay with S. pyogenes (ATCC 51339) was not above 1 µg/mL in each case.

In the case of `CCNC(=O)Nc1nc2cc(-c3cnc(C(C)(C)O)nc3)c(F)cc2s1` [Compound 177, 1-ethyl-3-[6-fluoro-5-[2-(1-hydroxy-1-methyl-ethyl)pyrimidin-5-yl]-1,3-benzothiazol-2-yl]urea], the values for the MIC in the assay with S. aureus (ATCC 29213) and in the assay on S. pyogenes (ATCC 51339) were not above 1 µg/mL and 2 µg/mL (≈ 5.33 µM), respectively.

On to `CCNC(=O)Nc1nc2cc(-c3cnc(C(O)C(C)(C)C)nc3)cc(-c3ccccn3)c2s1` (stereo not drawn) [Compound 60, 1-ethyl-3-[5-[2-(1-hydroxy-2,2-dimethyl-propyl)pyrimidin-5-yl]-7-(2-pyridyl)-1,3-benzothiazol-2-yl]urea], for which the MIC in the assay with S. aureus (ATCC 29213) and in the assay on S. pyogenes (ATCC 51339) was not above 1 µg/mL throughout.

Consider `CCNC(=O)Nc1nc2cc(-c3cnc(C(C)(C)O)nc3)cc(-c3cc(CN4CC[C@@H](OC)C4)ccn3)c2s1` [Compound 42, 1-ethyl-3-[5-[2-(1-hydroxy-1-methyl-ethyl)pyrimidin-5-yl]-7-[4-[[(3R)-3-methoxypyrrolidin-1-yl]methyl]-2-pyridyl]-1,3-benzothiazol-2-yl]urea], for which the MIC with S. aureus (ATCC 29213) and in the assay on S. pyogenes (ATCC 51339) was not above 1 µg/mL throughout.

Turning to `CCNC(=O)Nc1nc2cc(-c3cnc(C(C)(C)O)nc3)cc(-c3nccc(NCCO)n3)c2s1` [Compound 85, 1-ethyl-3-[7-[4-(2-hydroxyethylamino)pyrimidin-2-yl]-5-[2-(1-hydroxy-1-methyl-ethyl)pyrimidin-5-yl]-1,3-benzothiazol-2-yl]urea], the MIC in the assay on S. aureus (ATCC 29213) was 2 µg/mL (≈ 4.04 µM); in the assay on S. pyogenes (ATCC 51339), not above 1 µg/mL.

In the case of `CCNC(=O)Nc1nc2cc(-c3cnc(C4(O)CCCCC4)nc3)cc(-c3ccccn3)c2s1` [Compound 47, 1-ethyl-3-[5-[2-(1-hydroxycyclohexyl)pyrimidin-5-yl]-7-(2-pyridyl)-1,3-benzothiazol-2-yl]urea], the MIC in the assay on S. aureus (ATCC 29213) and with S. pyogenes (ATCC 51339) was 8 µg/mL (≈ 16.9 µM) throughout.

`CCNC(=O)Nc1nc2cc(-c3cnc(C(O)(CC)CC)nc3)cc(-c3ccccn3)c2s1` [Compound 98, 1-ethyl-3-[5-[2-(1-ethyl-1-hydroxy-propyl)pyrimidin-5-yl]-7-(2-pyridyl)-1,3-benzothiazol-2-yl]urea]: the MIC in the assay with S. aureus (ATCC 29213) and in the assay with S. pyogenes (ATCC 51339) was not above 1 µg/mL each time.

For the compound `CCNC(=O)Nc1nc2cc(-c3cnc(C(C)(C)O)nc3)cc(-c3nccc(CN4CCOCC4)n3)c2s1` [Compound 101, 1-ethyl-3-[5-[2-(1-hydroxy-1-methyl-ethyl)pyrimidin-5-yl]-7-[4-(morpholinomethyl)pyrimidin-2-yl]-1,3-benzothiazol-2-yl]urea], the MIC with S. aureus (ATCC 29213) and with S. pyogenes (ATCC 51339) was not above 1 µg/mL in each case.

For the compound `CCNC(=O)Nc1nc2cc(-c3cnc(C(C)(C)O)nc3)cc(-c3nccc(N4CC(C)(O)C4)n3)c2s1` [Compound 86, 1-ethyl-3-[7-[4-(3-hydroxy-3-methyl-azetidin-1-yl)pyrimidin-2-yl]-5-[2-(1-hydroxy-1-methyl-ethyl)pyrimidin-5-yl]-1,3-benzothiazol-2-yl]urea], the MIC is 8 µg/mL (≈ 15.4 µM) in the assay on S. aureus (ATCC 29213) and not above 1 µg/mL in the assay with S. pyogenes (ATCC 51339).

Consider `CCNC(=O)Nc1nc2cc(-c3cnc(C(C)O)nc3)cc(-c3cc(CN4CC[C@@H](O)C4)ccn3)c2s1` (stereo partly drawn) [Compound 77, 1-ethyl-3-[5-[2-(1-hydroxyethyl)pyrimidin-5-yl]-7-[4-[[(3R)-3-hydroxypyrrolidin-1-yl]methyl]-2-pyridyl]-1,3-benzothiazol-2-yl]urea], for which the MIC in the assay with S. aureus (ATCC 29213) and in the assay on S. pyogenes (ATCC 51339) was not above 1 µg/mL each time.

Turning to `CCNC(=O)Nc1nc2cc(-c3cnc(C(C)(C)OC(=O)CCC(=O)O)nc3)cc(-c3ccccn3)c2s1` [Compound 21, 4-[1-[5-[2-(ethylcarbamoylamino)-7-(2-pyridyl)-1,3-benzothiazol-5-yl]pyrimidin-2-yl]-1-methyl-ethoxy]-4-oxo-butanoic acid], the MIC in the assay with S. aureus (ATCC 29213) was 4 µg/mL (≈ 7.48 µM); with S. pyogenes (ATCC 51339), not above 1 µg/mL.

As for `CCNC(=O)Nc1nc2cc(-c3cnc(C4(O)CCNCC4)nc3)cc(-c3ccccn3)c2s1` [Compound 174, 1-ethyl-3-[5-[2-(4-hydroxy-4-piperidyl)pyrimidin-5-yl]-7-(2-pyridyl)-1,3-benzothiazol-2-yl]urea], the values for the MIC with S. aureus (ATCC 29213) and in the assay with S. pyogenes (ATCC 51339) were 8 µg/mL (≈ 16.8 µM) and 2 µg/mL (≈ 4.21 µM), respectively.

With `CCNC(=O)Nc1nc2cc(-c3cnc(C(C)(C)O)nc3)cc(-c3cc(CN4CCC(O)C4)ccn3)c2s1` (stereo not drawn) [Compound 29, 1-ethyl-3-[5-[2-(1-hydroxy-1-methyl-ethyl)pyrimidin-5-yl]-7-[4-[(3-hydroxypyrrolidin-1-yl)methyl]-2-pyridyl]-1,3-benzothiazol-2-yl]urea], the MIC with S. aureus (ATCC 29213) and with S. pyogenes (ATCC 51339) was not above 1 µg/mL in each case.

As for `CCNC(=O)Nc1nc2cc(-c3cnc(C(C)(C)O)nc3)c(OCCOC)cc2s1` [Compound 183, 1-ethyl-3-[5-[2-(1-hydroxy-1-methyl-ethyl)pyrimidin-5-yl]-6-(2-methoxyethoxy)-1,3-benzothiazol-2-yl]urea], the MIC in the assay on S. aureus (ATCC 29213) and with S. pyogenes (ATCC 51339) was not above 1 µg/mL each time.

Regarding `CCNC(=O)Nc1nc2cc(-c3cnc(C(C)(C)O)nc3)cc(-c3cc(NC4CCC(C)(C(=O)O)CC4)ccn3)c2s1` (stereo not drawn) [Compound 54, 4-[[2-[2-(ethylcarbamoylamino)-5-[2-(1-hydroxy-1-methyl-ethyl)pyrimidin-5-yl]-1,3-benzothiazol-7-yl]-4-pyridyl]amino]-1-methyl-cyclohexanecarboxylic acid], the MIC in the assay with S. aureus (ATCC 29213) and in the assay with S. pyogenes (ATCC 51339) was not above 1 µg/mL throughout.

Take `CCNC(=O)Nc1nc2cc(-c3cnc(C(C)(C)O)nc3)cc(-c3cc(CN4CCC(C)(O)C4)ccn3)c2s1` (stereo not drawn) [Compound 67, 1-ethyl-3-[5-[2-(1-hydroxy-1-methyl-ethyl)pyrimidin-5-yl]-7-[4-[(3-hydroxy-3-methyl-pyrrolidin-1-yl)methyl]-2-pyridyl]-1,3-benzothiazol-2-yl]urea]: the MIC in the assay with S. aureus (ATCC 29213) and in the assay on S. pyogenes (ATCC 51339) was not above 1 µg/mL in each case.

Turning to `CCNC(=O)Nc1nc2cc(-c3cnc(C(C)(C)O)nc3)cc(-c3cc(CN4CC[S+]([O-])CC4)ccn3)c2s1` [Compound 188, 1-ethyl-3-[5-[2-(1-hydroxy-1-methyl-ethyl)pyrimidin-5-yl]-7-[4-[(1-oxo-1,4-thiazinan-4-yl)methyl]-2-pyridyl]-1,3-benzothiazol-2-yl]urea], the MIC in the assay with S. aureus (ATCC 29213) and with S. pyogenes (ATCC 51339) was not above 1 µg/mL throughout.

On to `CCNC(=O)Nc1nc2cc(-c3cnc(C(C)(C)O)cn3)cc(-c3ccccn3)c2s1` [Compound 49, 1-ethyl-3-[5-[5-(1-hydroxy-1-methyl-ethyl)pyrazin-2-yl]-7-(2-pyridyl)-1,3-benzothiazol-2-yl]urea], for which the MIC in the assay with S. aureus (ATCC 29213) and in the assay with S. pyogenes (ATCC 51339) was not above 1 µg/mL each time.

For the compound `CCCNC(=O)Nc1nc2cc(-c3cnc(C(C)(C)O)nc3)cc(-c3ccccn3)c2s1` [Compound 57, 1-[5-[2-(1-hydroxy-1-methyl-ethyl)pyrimidin-5-yl]-7-(2-pyridyl)-1,3-benzothiazol-2-yl]-3-propyl-urea], the results for the MIC with S. aureus (ATCC 29213) and with S. pyogenes (ATCC 51339) were not above 1 µg/mL and 2 µg/mL (≈ 4.46 µM), respectively.

Turning to `CCNC(=O)Nc1nc2cc(-c3ccc(C(O)C(F)(F)F)nc3)cc(-c3cc(CN4CCOCC4)ccn3)c2s1` (stereo not drawn) [Compound 108, 1-ethyl-3-[7-[4-(morpholinomethyl)-2-pyridyl]-5-[6-(2,2,2-trifluoro-1-hydroxy-ethyl)-3-pyridyl]-1,3-benzothiazol-2-yl]urea], the MIC with S. aureus (ATCC 29213) and in the assay on S. pyogenes (ATCC 51339) was not above 1 µg/mL in each case.

For the compound `CCNC(=O)Nc1nc2cc(-c3cnc(C(C)(C)O)nc3)cc(-c3nccc(NCCOC)n3)c2s1` [Compound 78, 1-ethyl-3-[5-[2-(1-hydroxy-1-methyl-ethyl)pyrimidin-5-yl]-7-[4-(2-methoxyethylamino)pyrimidin-2-yl]-1,3-benzothiazol-2-yl]urea], the MIC in the assay on S. aureus (ATCC 29213) and in the assay with S. pyogenes (ATCC 51339) was not above 1 µg/mL in each case.

Take `CCNC(=O)Nc1nc2cc(-c3cnc(C(C)O)nc3)cc(-c3cc(CN4CC(O)C4)ccn3)c2s1` (stereo not drawn) [Compound 65, 1-ethyl-3-[7-[4-[(3-hydroxyazetidin-1-yl)methyl]-2-pyridyl]-5-[2-(1-hydroxyethyl)pyrimidin-5-yl]-1,3-benzothiazol-2-yl]urea]: the MIC with S. aureus (ATCC 29213) is 2 µg/mL (≈ 3.96 µM); with S. pyogenes (ATCC 51339), not above 1 µg/mL.

In the case of `CCNC(=O)Nc1nc2cc(-c3cnc(C(C)(C)O)nc3)cc(OC)c2s1` [Compound 12, 1-ethyl-3-[5-[2-(1-hydroxy-1-methyl-ethyl)pyrimidin-5-yl]-7-methoxy-1,3-benzothiazol-2-yl]urea], the MIC in the assay with S. aureus (ATCC 29213) and in the assay with S. pyogenes (ATCC 51339) was not above 1 µg/mL throughout.

Source of the values: patent US20170260178A1 (SPERO GYRASE, INC., priority 2012, published 2017).
